Where “and” joins values, the source holds several entries; their conditions need not be identical. Identical values can stand only once.
Experiments:
[1] = biological target: T1, wt IDH1 (Homo sapiens, UniProt O75874); experiment: Isothermal titration calorimetry (ITC), binding to wt IDH1; settings: alone, EDTA-treated wt IDH1, 50 mM Tris-HCl, pH 7.5
T1 construct: made in house; host or cells: Escherichia coli BL21(DE3) pLyS
Method: ITC experiments were conducted using a Malvern MicroCal PEAQ-ITC Automated machine. In general, the protein was prepared in 50 mM Tris-HCl ± 5 mM metal chloride salts at pH 7.5; substrates were dissolved in the same buffer. Four hundred microlitres of cell solution and 200 µL of titrant were transferred to an ITC plate. […] The injection setup consisted of 19 injections that have one initial injection of 0.4 µL and 18 injections of 2.0 µL each with 150 s between the injections. The thermodynamic parameters were obtained using the MicroCal PEAQ-ITC analysis software.

[2] = ITC, metal ion binding to DL-isocitrate; settings: read-out: KD for metal ion binding to DL-isocitrate; metal ion (10 mM), DL-isocitrate (500 µM), 50 mM Tris-HCl, pH 7.5
Method: ITC experiments were conducted using a Malvern MicroCal PEAQ-ITC Automated machine. In general, the protein was prepared in 50 mM Tris-HCl ± 5 mM metal chloride salts at pH 7.5; substrates were dissolved in the same buffer. Four hundred microlitres of cell solution and 200 µL of titrant were transferred to an ITC plate. Titrations were conducted at 25 °C with an initial delay of 60 s and a stir speed of 750 r.p.m. The injection setup consisted of 19 injections that have one initial injection of 0.4 µL and 18 injections of 2.0 µL each with 150 s between the injections. The thermodynamic parameters were obtained using the MicroCal PEAQ-ITC analysis software.

[3] = biological target: T1, wt IDH1; experiment: Absorbance assay: effect of metal ions on catalysis and inhibition of wt IDH1; assay type: biochemical; settings: wt IDH1, metal ions 10 mM
Method: Inhibition assays of wt or R132H IDH1 with metal ions were conducted with a 12 min pre-incubation of metal ions (25 µL, final concentration 10 mM) and enzyme (25 µL) before the addition of substrate (25 µL) and cofactor (25 µL). […] The difference in absorbance, ΔA340, in the linear range of the reaction profile was converted to % residual activity with the DMSO control being the 100% residual activity reference.

[4] = biological target: T1, wt IDH1; experiment: Absorbance assay: kinetics of reductive reaction (2OG to isocitrate) by wt IDH1; assay type: biochemical; settings: wt IDH1, reductive reaction with Mg^2+
Method: (§1) All experiments were performed in (at least) triplicate.
(§2) KM values were determined by varying concentrations of the substrate/cofactor under investigation while maintaining the concentrations of other components using standard conditions. […] Graphs were fitted using GraphPad Prism to obtain kinetic parameters.

[5] = biological target: T1, wt IDH1; experiment: Differential scanning fluorimetry (DSF) thermal shift, wt IDH1; assay type: binding; settings: for Δ in Tm: Fig. 2e; for thermal stabilisation: wt IDH1, Mg^2+ alone, 0.032–20 mM
Method: Thermal shift experiments were carried out using Sypro Orange dye and a CFX96 Touch^TM Real-Time PCR Detection System (Bio-Rad)[69]. […] The standard assay buffer contains 50 mM Tris-HCl at pH 7.5. Various concentrations of substrates were mixed with IDH1 for thermal stabilisation studies. […] Bio-Rad CFX Manager was used to determine the melting temperature, Tm.

[6] = biological target: T1, wt IDH1; experiment: Absorbance assay (NADPH, 340 nm): kinetics of oxidative reaction (isocitrate to 2OG) by wt IDH1; assay type: biochemical
Method: as §1, §2

[7] = wt IDH1, oxidative reaction with Mg^2+ (10 mM MgCl2)

T1 sequence (O75874 2-414): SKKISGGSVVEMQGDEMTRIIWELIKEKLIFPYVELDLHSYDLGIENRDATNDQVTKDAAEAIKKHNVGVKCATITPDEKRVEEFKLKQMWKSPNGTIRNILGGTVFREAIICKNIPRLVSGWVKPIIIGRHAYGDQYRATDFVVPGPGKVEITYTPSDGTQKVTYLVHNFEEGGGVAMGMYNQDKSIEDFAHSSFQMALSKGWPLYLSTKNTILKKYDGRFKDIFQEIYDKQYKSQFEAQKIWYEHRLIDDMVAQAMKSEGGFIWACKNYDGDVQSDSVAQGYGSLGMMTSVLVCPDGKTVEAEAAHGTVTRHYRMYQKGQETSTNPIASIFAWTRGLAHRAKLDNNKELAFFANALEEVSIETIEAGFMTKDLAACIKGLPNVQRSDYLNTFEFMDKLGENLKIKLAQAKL

[Cl-].[Cl-].[Mg+2] [MgCl2]
Kd [1]: > 8000 µM
Kd [2]: 1500 µM
effect of metal ion on catalysis [3]: promoted
kcat [4]: 2.1 ± 0.1 s⁻¹
Δ in Tm ([5]; wt IDH1, 0.8 mM MgCl2, replicates): -0.3 °C and -0.1 °C (2×)
Δ in Tm ([5]; wt IDH1, 4 mM MgCl2, replicates): -0.1 °C
Δ in Tm ([5]; wt IDH1, 20 mM MgCl2, replicates): -0.5 °C and -0.1 °C (2×)
thermal stabilisation [5]: no thermal shift
thermal stabilisation ([5]; listed as Mg^2+): does not stabilise
thermal stabilisation (shift in Tm) ([5]; wt IDH1, divalent metal ions (5 mM), 50 mM Tris-HCl, pH 7.5): less stabilising effect
Velocity ([6]; Fig. S2c, [MgCl2] 1.95312 μM): 0.01456 µM/s and 0.01492 µM/s and 0.01895 µM/s
Velocity ([6]; Fig. S2c, [MgCl2] 3.90625 μM): 0.02158 µM/s and 0.02123 µM/s and 0.02246 µM/s
Velocity ([6]; Fig. S2c, [MgCl2] 7.8125 μM): 0.03106 µM/s and 0.03492 µM/s and 0.04106 µM/s
Velocity ([6]; Fig. S2c, [MgCl2] 15.625 μM): 0.05387 µM/s and 0.06159 µM/s and 0.06633 µM/s
Velocity ([6]; Fig. S2c, [MgCl2] 31.25 μM): 0.08809 µM/s and 0.1025 µM/s and 0.1206 µM/s
Velocity ([6]; Fig. S2c, [MgCl2] 62.5 μM): 0.1304 µM/s and 0.136 µM/s and 0.1651 µM/s
Velocity ([6]; Fig. S2c, [MgCl2] 250 μM): 0.1516 µM/s and 0.1788 µM/s and 0.1943 µM/s
Velocity ([6]; Fig. S2c, [MgCl2] 500 μM): 0.1764 µM/s and 0.1771 µM/s and 0.2318 µM/s
Velocity ([6]; Fig. S2c, [MgCl2] 1000 μM): 0.1957 µM/s and 0.2076 µM/s and 0.2279 µM/s
Velocity ([6]; Fig. S2c, [MgCl2] 2000 μM): 0.2057 µM/s and 0.2199 µM/s and 0.2304 µM/s
Velocity ([6]; Fig. S2d, [MgCl2] 15.625 μM): 0.01053 µM/s and 0.01316 µM/s
Velocity ([6]; Fig. S2d, [MgCl2] 31.25 μM): 0.02369 µM/s and 0.03159 µM/s and 0.03685 µM/s
Velocity ([6]; Fig. S2d, [MgCl2] 62.5 μM): 0.03422 µM/s and 0.03685 µM/s and 0.04738 µM/s
Velocity ([6]; Fig. S2d, [MgCl2] 250 μM): 0.0737 µM/s and 0.08423 µM/s and 0.07633 µM/s
Velocity ([6]; Fig. S2d, [MgCl2] 500 μM): 0.09476 µM/s and 0.07896 µM/s
Velocity ([6]; Fig. S2d, [MgCl2] 1000 μM): 0.1027 µM/s and 0.08949 µM/s and 0.09476 µM/s
Velocity ([6]; Fig. S2d, [MgCl2] 2000 μM): 0.08949 µM/s and 0.1079 µM/s and 0.09212 µM/s
kcat ([6]; wt IDH1, oxidative reaction with Mg^2+): 50 ± 4 s⁻¹
Km [6, 7]: 36 ± 4 µM
Vmax [6, 7]: 214 ± 5 nM/s
Km ([6]; wt IDH1 isocitrate oxidation, in the presence of 150 mM NaCl): 94 µM
